Type in all cases: functional, organism-based
Experiment [1] deals with Plasmodium falciparum. The experiment is described as follows: Inhibitory concentration against chloroquine-sensitive Plasmodium falciparum.
Experiment [2] deals with Mus musculus. The experiment is described as follows: Compound was evaluated for the blood-schizonticidal antimalarial activity against Plasmodium berghei (sensitive strain) in mice (Mus musculus) at 100 mg/kg/day x 4 (oral); indicates that the treated animals show positive parasitaemia either on D+4 or D+7 and usually dieby D+14 (survival=0/6).
The subject of experiment [3] is Mus musculus. Nature of the experiment: Compound was evaluated for the blood-schizonticidal antimalarial activity against Plasmodium yoelii nigeriensis (multidrug-resistant strain) in mice (Mus musculus) at 100 mg/kg/day x 4 (oral); indicates that the treated animals show positive parasitaemia either on D+4 orD+7 and usually die by D+14 (survival=0/6).
The subject of experiment [4] is Mus musculus. Nature of the experiment: Compound was evaluated for the blood-schizonticidal antimalarial activity against Plasmodium yoelii nigeriensis (multidrug-resistant strain) in mice (Mus musculus) at 100 mg/kg/day x 4 (oral); indicates complete elimination of malaria parasites from the body, and animalssurvive up to day D.
For experiment [5], the system named is Mus musculus. Nature of the experiment: Compound was evaluated for the blood-schizonticidal antimalarial activity against Plasmodium yoelii nigeriensis (multidrug-resistant strain) in mice (Mus musculus) at 50 mg/kg/day x 4 (oral); indicates that all of the treated animals show negative parasitaemia up to D+7(survival=4/6).
Experiment [6] has as its system Mus musculus. Nature of the experiment: Compound was evaluated for the blood-schizonticidal antimalarial activity against Plasmodium berghei (sensitive strain) in mice (Mus musculus) at 100 mg/kg/day x 4 (oral); indicates complete elimination of malaria parasites from the body, and animals survive up to day D+60 (survival=6/6).
The subject of experiment [7] is Mus musculus. The experiment is described as follows: Compound was evaluated for the blood-schizonticidal antimalarial activity against Plasmodium berghei (sensitive strain) in mice (Mus musculus) at 50 mg/kg/day x 4 (oral); indicates complete elimination of malaria parasites from the body, and animals survive up to day D+60 (survival=6/6).
Experiment [8] deals with Mus musculus. The experiment is described as follows: Compound was evaluated for the blood-schizonticidal antimalarial activity against Plasmodium berghei (sensitive strain) in mice (Mus musculus) at 10 mg/kg/day x 4 (oral); indicates that all of the treated animals show negative parasitaemia up to D+7 (survival=4/6).
In experiment [9] the test system is Mus musculus. Nature of the experiment: Compound was evaluated for the blood-schizonticidal antimalarial activity against Plasmodium berghei (sensitive strain) in mice (Mus musculus) at 25 mg/kg/day x 4 (oral); indicates complete elimination of malaria parasites from the body, and animals survive up to day D+60 (survival=6/6).
Experiment [10] concerns Plasmodium falciparum. The experiment is described as follows: Inhibitory activity I50 against chloroquine-sensitive Plasmodium falciparum.

SMILES strings stand for the structures. Values after ≈ are worked out from the molar mass of the structure shown. Active and inactive are the calls of the source. The rule behind the calls is not given here.

For three compounds, IC50 and Antimalarial activity results are on record in ChEMBL document CHEMBL1148375, “Discovery of a bulky 2-tert-butyl group containing primaquine analogue that exhibits potent blood-schizontocidal antimalarial activities and complete elimination of methemoglobin toxicity” (J Med Chem, 2004).

The term IC50 denotes the concentration that inhibits the measured activity by half. A low value points to inhibition by little substance. In the experiment on Plasmodium falciparum [1], `COc1cc(NC(C)CCCN)c2nc(C34C[C@H]5C[C@@H](C3)C[C@@H](C4)C5)ccc2c1` (some centres not stated) came in with an IC50 of more than 0.5 µg/mL. Moreover, the Antimalarial activity result in the experiment on Mus musculus [2] and in the experiment with Mus musculus [3] was “inactive” in each case.

Regarding `COc1cc(NC(C)CCCN)c2ncccc2c1` (configuration not stated), the Antimalarial activity entry in the experiment with Mus musculus [2] and in the experiment with Mus musculus [3] was “inactive” in each case.

In the case of `COc1cc(NC(C)CCCN)c2nc(C(C)(C)C)ccc2c1` (configuration not stated), the Antimalarial activity entry with Mus musculus [4], in the experiment on Mus musculus [6], with Mus musculus [7] and in the experiment with Mus musculus [9] was “Curative” throughout. Moreover, the Antimalarial activity entry in the experiment with Mus musculus [5] and in the experiment with Mus musculus [8] was “Active” in each case. Also, in the experiment on Plasmodium falciparum [10], the IC50 worked out at 0.0391 µg/mL (≈ 0.124 µM).
